Where a chain is given by its changes, count along the chain named.

Data set [1] concerns the target T1, TrxR1(U498C) (Homo sapiens, UniProt Q16881).
T1 sequence (Q16881 with tags, fused parts or gaps isoform Q16881-5): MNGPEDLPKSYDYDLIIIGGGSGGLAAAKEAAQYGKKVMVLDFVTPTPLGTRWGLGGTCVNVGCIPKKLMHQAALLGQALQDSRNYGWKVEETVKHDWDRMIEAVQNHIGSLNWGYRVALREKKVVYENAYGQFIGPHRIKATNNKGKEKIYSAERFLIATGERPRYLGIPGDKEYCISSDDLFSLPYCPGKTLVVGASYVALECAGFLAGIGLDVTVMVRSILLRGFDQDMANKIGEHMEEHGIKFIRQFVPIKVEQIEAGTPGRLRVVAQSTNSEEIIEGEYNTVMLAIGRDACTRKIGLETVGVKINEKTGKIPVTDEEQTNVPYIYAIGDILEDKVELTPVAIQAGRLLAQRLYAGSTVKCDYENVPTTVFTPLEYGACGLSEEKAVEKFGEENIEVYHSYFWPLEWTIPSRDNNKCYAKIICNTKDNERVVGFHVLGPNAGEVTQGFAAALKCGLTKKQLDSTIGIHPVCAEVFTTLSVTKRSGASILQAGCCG
Put plainly: Enzymatic activation assay: TrxR1 Secys498Cys mutant. Type of data set: biochemical. Conditions: NADPH; for cargo release / processing by TrxR1(U498C)/Trx1: TrxR1(U498C) with Trx1. An excerpt: (§1) This assay (see FIG. 2) examined the resistance of disulfide-based reduction-triggered compounds to the major cellular enzymatic systems that maintain redox homeostasis and are capable of reducing disulfides, evaluated in a cell-free assay, to see if these compounds can be useful for selective enzyme-triggered release.
(§2) Assay conditions: A black 96-well plate with black bottom was charged with solutions of fluorophore-releasing reduction-triggered probes that are compounds of the invention (P1, P2) or that are not compounds of the invention and reveal the performance of prior art systems (X19) (50 μL; 40 μM in aq. TE buffer (pH 7.4) and 4 μL DMSO). Separately, master mixes (30 μL in aq. TE buffer (pH 7.4)) containing mixtures of the proteins human recombinant thioredoxin 1 (Trx1, 0.166-16.66 μM) or thioredoxin 2 (Trx2, 3.3 μM), or human recombinant glutaredoxin 1 (“Grx1”, 3.3 μM) or glutaredoxin 2 (Grx2, 3.3 μM) and/or oxidoreductases human recombinant thioredoxin reductase 1 (TrxR1, 0.07 μM), the thioredoxin reductase Secys498Cys mutant (TrxR1-U498C, 0.07 μM), thioredoxin reductase 2 (TrxR2, 0.07 μM) or human recombinant glutathione reductase (GR, 0.07 μM), and/or GSH (3.3 μM) were prepared. Note that TrxR1 (U498C) has decreased reducing power compared to TrxR1 due to the mutation of the key vicinal selenothiol/thiol into a vicinal dithiol, but it still reduces Trx1. […]
(§3) Data Representation: (F(t)-F^NADPH(t)) is the fluorescence intensity of the test solution at time t, from which is subtracted a background fluorescence level also at time t from a solution with NADPH (which itself is fluorescent, and is present in 10-fold higher concentration than the probe) and with the same protein mixture but without the probe. F^max(t) is the maximum possible fluorescence intensity value at time t, determined by incubation with TCEP (100 μM)) similarly as for the chemical reductant assay. (F(t)−F^NADPH(t))/F^max(t) thus gives the timecourse of fluorescence signal, as a fraction of the maximum possible fluorescence signal. […]

The target of data set [2] is T2, thioredoxin reductase 1 (TrxR1) (Homo sapiens, UniProt Q16881).
T2 sequence (Q16881 1-499 isoform Q16881-5): T1 sequence (Q16881 with tags, fused parts or gaps isoform Q16881-5) with C498U
Nature of the data set: Enzymatic activation assay: NADPH/TrxR1 without Trx. The format is biochemical. To be noted: NADPH/TrxR1, no Trx added, 37° C., 6 h.
Text: as §1, §2, §3

Data set [3] is described as follows: Chemical reductant assay: GSH challenge (cell-free). Conditions: aq. TE buffer pH 7.4, 37° C., 6 h, GSH 0.01-10 mM. The format is physicochemical. An excerpt: This assay (see FIG. 1) examined the stability of disulfide-based reduction-triggered compounds of the invention when exposed to monothiol reductants, primarily the major physiological cellular monothiol GSH, and dithiol reductants like the disulfide reductant dithiothreitol (DTT), as evaluated in a cell-free assay, to determine whether these compounds can be useful for selective release.
Assay Conditions: A black 96-well plate with black bottom was charged with solutions of fluorophore-releasing reduction-triggered probes that are compounds of the invention (P1, P2, P3, P4 and P5) or that are not compounds of the invention and reveal the performance of prior art systems (X19) (80 μL; 25 μM in aq. TE buffer (pH 7.4) and 1.25% vol DMSO). Solutions of challenge species chosen from the monothiol glutathione (GSH, 0.1-50 mM) and the dithiol reductant dithiothreitol (DTT, 0.1-50 mM) or phosphine reductant tris-(2-carboxyethyl) phosphine (TCEP); (20 μL; 1 mM in aq. TE buffer (pH 7.4) were added and the reaction mixtures were incubated at 37° C. for 6 h while measuring fluorescence intensity over time [F(t)] using a BMG Labtech FLUOstar Omega platereader (λexc=355 nm, Δem=530 nm for PQ-OH-releasing probes X19, P1 and P2; Δexc=485 nm, Δem=530 nm for MF-OH-releasing probes P3 and P4.
Data Representation: F^max is the maximum possible fluorescence increase corresponding to complete reduction-triggered cargo release, i.e. the fluorescence intensity increase from time zero to signal plateau under TCEP incubation PQ-OH-releasing probes. F(t)/F^max(t) thus gives the timecourse measurements of fluorescence intensity, as a fraction of the maximum possible fluorescence signal. F^sat is the endpoint fluorescence intensity increase for each condition, ie. F^sat=(F(6 h)). F^sat/F^max thus gives the assay endpoint fluorescence intensity increase, as a fraction of the maximum possible fluorescence signal. In the GSH timecourse measurements shown in FIG. 1, all datasets annotated with concentrations only (0.01-10 mM) refer to GSH challenges, while datasets for TCEP positive control (100 μM) and no-reductant control (blank) are shown for comparison. The dose-response plots show F^sat/F^max for the different ratios between probe and GSH or probe and DTT concentrations, with a logarithmic horizontal scale.

As for `O=C(Oc1ccc(Cl)cc1-c1nc2ccc(Cl)cc2c(=O)[nH]1)N1CCC[C@@H]2CSSC[C@H]21` (racemic) [Compound P1, 4-chloro-2-(6-chloro-4-oxo-3,4-dihydroquinazolin-2-yl)phenyl-(trans)-hexahydro-[1,2]dithiino[4,5-b]pyridine-1(2H)-carboxylate], the “cargo release / processing by TrxR1(U498C)/Trx1” value in data set [1] is listed as “not processed”. Moreover, the “cargo release / processing by TrxR1” value in data set [2] is “not processed”. Besides, the “cargo release (fluorescence) when challenged with monothiol reductant GSH” value (“cargo release … with monothiol reductant GSH” for short) in data set [3] was “do not release cargo”.

In the case of `O=C(Oc1ccc(Cl)cc1-c1nc2ccc(Cl)cc2c(=O)[nH]1)N1CCC[C@@H]2CSSC[C@@H]21` (racemic) [Compound P2, 4-chloro-2-(6-chloro-4-oxo-3,4-dihydroquinazolin-2-yl)phenyl-(cis)-hexahydro-[1,2]dithiino[4,5-b]pyridine-1(2H)-carboxylate], the “cargo release / processing by TrxR1(U498C)/Trx1” value in data set [1] was “not processed”. Further, the “cargo release / processing by TrxR1” value in data set [2] is “not processed”. Further, in data set [3], the “cargo release … with monothiol reductant GSH” value is listed as “do not release cargo”.

On to “4-chloro-2-(6-chloro-4-oxo-3,4-dihydroquinazolin-2-yl)phenyl methyl(2-((2-(methyl amino)ethyl)disulfaneyl)ethyl)carbamate [Compound X19, reference compound]”, for which, in data set [1] (TrxR1(U498C)), the “cargo release / degradation by TrxR1(U498C)” value is listed as “rapidly degraded”. Besides, the “cargo release / processing by TrxR1” value in data set [2] is “rapidly degraded”. Besides, in data set [3], the “cargo release … with monothiol reductant GSH” value is listed as “already unstable to the monothiol GSH”.

Values taken from patent US20240207414A1, “DISULFIDE-BASED PRODRUG COMPOUND” (Ludwig-Maximilians-Universitat Munchen, priority 2021, published 2024).
